# Measured values from patent US8022248B2, “Substituted acids for the treatment of respiratory diseases” (AstraZeneca AB, priority 2004, dated 2011).
# Target: T1, rhCRTh2 (Homo sapiens, UniProt Q9Y5Y4)
# T1 construct: expressed in transfected cells; host or cells: HEK cells (membrane preparation)
# T1 sequence (Q9Y5Y4 1-395): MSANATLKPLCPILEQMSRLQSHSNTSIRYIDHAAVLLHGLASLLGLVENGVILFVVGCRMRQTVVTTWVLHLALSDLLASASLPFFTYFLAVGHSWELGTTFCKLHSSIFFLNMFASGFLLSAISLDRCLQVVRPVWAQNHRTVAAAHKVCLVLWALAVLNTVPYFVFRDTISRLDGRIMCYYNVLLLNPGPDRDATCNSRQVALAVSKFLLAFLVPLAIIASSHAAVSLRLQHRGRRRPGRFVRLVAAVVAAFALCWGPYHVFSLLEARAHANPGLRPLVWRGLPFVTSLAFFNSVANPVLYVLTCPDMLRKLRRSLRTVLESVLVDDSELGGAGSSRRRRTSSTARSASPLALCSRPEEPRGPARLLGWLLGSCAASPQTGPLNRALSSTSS
# Assay: Ligand binding assay: [3H]PGD2 binding to HEK cell membranes containing CRTh2 (SPA beads)
# Details: [3H]PGD2 displacement, HEK cell membranes expressing rhCRTh2/Gα16, 2 hours room temperature
# Description: [^3H]PGD2 was purchased from Perkin Elmer Life Sciences with a specific activity of 100-210 Ci/mmol. All other chemicals were of analytical grade.
# HEK cells expressing rhCRTh2/Gα16 were routinely maintained in DMEM containing 10% Foetal Bovine Serum (HyClone), 1 mg/ml geneticin, 2 mM L-glutamine and 1% non-essential amino acids. For the preparation of membranes, the adherent transfected HEK cells were grown to confluence in two layer tissue culture factories (Fisher, catalogue number TKT-170-070E). Maximal levels of receptor expression were induced by addition of […] sodium butyrate for the last 18 hours of culture. The adherent cells were washed once with phosphate buffered saline (PBS, 50 ml per cell factory) and detached by the addition of 50 ml per cell factory of ice-cold membrane homogenisation buffer [20 mM HEPES (pH 7.4), 0.1 mM dithiothreitol, 1 mM EDTA, 0.1 mM phenyl methyl sulphonyl fluoride and 100 μg/ml bacitracin]. […] The final pellet was re-suspended in 4 ml of membrane homogenisation buffer per cell factory used and the protein content determined. […]
# All assays were performed in Corning clear bottomed, white 96-well NBS plates (Fisher). […] (The optimum coating concentrations were determined for each batch of membranes) The beads were pelleted by centrifugation (800×g for 7 minutes at 4° C.), washed once with assay buffer (50 mM HEPES pH 7.4 containing 5 mM magnesium chloride) and finally re-suspended in assay buffer at a bead concentration of 10 mg/ml.
# Each assay contained 20 μl of 6.25 nM [^3H]PGD2, 20 μl membrane saturated SPA beads both in assay buffer and 10 μl of compound solution or 13,14-dihydro-15-keto prostaglandin D2 (DK-PGD2, for determination of non-specific binding, Cayman chemical company). […] The assay plate was incubated at room temperature for 2 hours and counted on a Wallac Microbeta liquid scintillation counter (1 minute per well).
row,Structure (SMILES),IC50
1,"CCS(=O)(=O)c1ccc(Oc2cc(Cl)ccc2SCC(=O)O)c(Cl)c1 [Example 7, ({4-Chloro-2-[2-chloro-4-(ethylsulfonyl)phenoxy]phenyl}thio)acetic acid]",0.794 nM
2,"CCS(=O)(=O)Nc1ccc(Oc2cc(Cl)ccc2NCC(=O)O)c(Cl)c1 [Example 37, N-(4-Chloro-2-{2-chloro-4-[(ethylsulfonyl)amino]phenoxy}phenyl)glycine]",2.51 nM
3,"CCS(=O)(=O)c1ccc(Sc2cc(Cl)ccc2SCC(=O)O)c(Cl)c1 [Example 5, [(4-Chloro-2-{[2-chloro-4-(ethylsulfonyl)phenyl]thio}phenyl)thio]acetic acid]",2.51 nM
